Like-named read-outs stand apart in the source and are kept apart here.
Columns and labels:
[1] = Headspace Method (dynamic headspace GC/MS), solution in isopropyl myristate (IPM); assay type: physicochemical; settings: for Air/IPM partition coef (ng/mL in air per ng/mL in IPM) / Headspace: 30° C.; for Headspace: above IPM solution of about 2.1E+06 ng/mL
Description: (§1) Perfume headspace data is collected for various materials according to the method provided below.
(§2) The partition coefficients are calculated by determining the amount of PRM in the headspace above a solution with a known concentration using a GC/FID-MS (Agilent 7890 and 5977A MSD) with a thermal desorption unit (Gerstel MPS2) and Dynamic Headspace Sampler (Gerstel DHS). This technique allows for automated headspace collections using the MultiPurposeSampler (MPS). The PRMs of interest are prepared at a known concentration in isopropyl myristate (IPM) or propylene glycol monomethyl ether (DPM), and 1 mL is pipetted in a 20 mL headspace vial.
(§3) DHS Conditions: The sample is tempered in the unit at 30° C. A helium stream at 10 mls/min purges 20 mL of headspace containing the analytes above the sample onto the sorbent tube (TDU) containing 25 mg of TenaxTA 35/60 (Restek cat #25701).
(§4) TDU conditions: The sorbent tube is desorbed with a program starting at 30° C. solvent vent for 2 min then ramped at 720° C./min to 270° C. and held for 8 min. The analytes are refocused on a glass bead liner at −60° C. then desorbed at a rate of 12° C./s to 270° C. onto the GC column.
(§5) GC/MS conditions: Agilent 122-5532UI column of 30 m×250 μm×0.25 μm and a flow rate of 1.5mL/min is utilized. A temperature program of 50° C. to 280° C. with a 2 min hold and a ramp rate of 12° C./min is suitable. Scan or SIM mode MSD parameters with a solvent delay for the DPM are applied to achieve appropriate detection.
(§6) Analytical standards can be obtained from Sigma Aldrich, St. Louis, MO and BioSynth, UK. A stock solution is prepared at approximately 0.5 g/L. The stock solution is then diluted to 4 to 5 concentrations ranging from approximately 0.05 g/L to 0.00005 g/L. These standard solutions are then analyzed by GC/MS. This analysis is performed by using the same TDU desorption and GC/MS conditions described above with a 1 uL liquid injection onto the TDU tube instead of the DHS collection. The amount injected on column and the area responses of the target m/z are utilized to create a calibration plot with a linear fit.
(§7) Quantification of the headspace is performed by the PRM target m/z area response of the perfume component and the linear equation of the calibration plot.
(§8) Perfume headspace data is collected for various materials according to the Headspace Method provided above in the Test Methods section. The Air/Solvent partition coefficients are determined and indexed accordingly (e.g., where the partition coefficient for ethylvanillin is set at 1.00).

[2] = Headspace Method (dynamic headspace GC/MS), solution in propylene glycol monomethyl ether (DPM); assay type: physicochemical; settings: for Air/DPM partition coef (ng/mL in air per ng/mL in DPM) / Headspace: 30° C.; for Headspace: above DPM solution of 1.1E+07 ng/mL
Description: as §1, §2, §3, §4, §5, §6, §7, §8

| SMILES | Air/IPM partition coef (ng/mL in air per ng/mL in IPM) ([1]; average of two replicates) | Headspace ([1]; average of two replicates) [ng/mL] | Ethylvanillin Indexed Air/IPM partition coefficient ([1]; partition coefficient for ethylvanillin set at 1.00, average of two replicates) | Air/DPM partition coef (ng/mL in air per ng/mL in DPM) ([2]; average of three replicates) | Headspace ([2]; average of three replicates) [ng/mL] | Ethylvanillin Indexed Air/DPM partition coefficient ([2]; partition coefficient for ethylvanillin set at 1.00, average of three replicates) | Ethylvanillin Indexed Air/IPM partition coefficient [1] | goes into the headspace more than its structural isomer ethylvanillin ([1]; out of IPM) | goes into the headspace more than ethylvanillin ([2]; out of DPM) |
| --- | --- | --- | --- | --- | --- | --- | --- | --- | --- |
| CCOc1cc(C=O)ccc1O [Ethylvanillin] | 1.95E−08 ng/mL in air per ng/mL in IPM | 0.0402 | 1.00 | 2.45E−09 ng/mL in air per ng/mL in DPM | 0.0262 | 1.00 |  |  |  |
| COc1cc(C=O)ccc1O [Vanillin] | 2.73E−08 ng/mL in air per ng/mL in IPM | 0.0563 |  | 1.21E−08 ng/mL in air per ng/mL in DPM | 0.1288 |  | 1.40 |  |  |
| CCOc1cccc(C=O)c1O [ortho-Ethylvanillin, 2-hydroxy-3-ethoxybenzaldehyde] | 1.21E−07 ng/mL in air per ng/mL in IPM | 0.2521 |  | 2.31E−07 ng/mL in air per ng/mL in DPM | 2.4678 |  |  | about 6.2 × | about 94 × |

Source: patent US20240199997A1, “COMPOSITIONS COMPRISING A META-(C1-C4 ALKOXY) […]” (The Procter & Gamble Company, priority 2022, published 2024)
